# Data as given in article PMC4013547 (ACS chemical biology, 2013).
# Molecular target: Ldtfm (E. faecium L,D-transpeptidase, catalytic domain) (Enterococcus faecium, UniProt Q3Y185)
# Assay: NMR chemical shift perturbation
# Type: binding
# Conditions: covalent; active-site cysteine Cys442; Pocket 1
row,SMILES,NMR chemical shift perturbation
1,C[C@@H](O)[C@H]1C(=O)N2C(C(=O)O)=C(SCCN=CN)C[C@H]12 [imipenem],"NMR chemical shift perturbations observed with imipenem, doripenem and meropenem"
2,C[C@@H](O)[C@H]1C(=O)N2C(C(=O)O)=C(S[C@@H]3CN[C@H](CNS(N)(=O)=O)C3)[C@H](C)[C@H]12 [doripenem],"NMR chemical shift perturbations observed with imipenem, doripenem and meropenem"
3,C[C@@H](O)[C@H]1C(=O)N2C(C(=O)O)=C(S[C@@H]3CN[C@H](C(=O)N(C)C)C3)[C@H](C)[C@H]12 [meropenem],"NMR chemical shift perturbations observed with imipenem, doripenem and meropenem"
